Earlier results in US5300300A, “Controlled release gastroresistant pharmaceutical formulations for oral administration containing bile acids and their salts” (Alfa Wassermann S.p.A., priority 1991, dated 1994).

Key:
[1] = complete solubilization takes place only at this pH

C[C@H](CCC(=O)O)[C@H]1CC[C@H]2[C@@H]3[C@@H](O)C[C@@H]4C[C@H](O)CC[C@]4(C)[C@H]3CC[C@]12C [ursodeoxycholic acid]
dissolution in the intestine (after having crossed the stomach unabsorbed and undissolved): dissolve very slowly in the intestine | intestinal pH needed for complete solubilization and absorption (intestinal pH, completely solubilized and absorbed only when exceeded): > 8.4 pH | pH of complete solubilization [1]: 8.47 pH
